The source of these data is patent publication US20220362230A1, “USE OF GLUTARIMIDE DERIVATIVE FOR OVERCOMING STEROID RESISTANCE AND TREATING DISEASES ASSOCIATED WITH ABERRANT INTERFERON GAMMA SIGNALING” ("CHEMIMMUNE THERAPEUTICS" LIMITED LIABILITY COMPANY, priority 2018, published 2022).

One test has as its system IFN-γ. Nature of the test: Phase II clinical trial, interferon-γ concentration in blood plasma. The test is classed as in vivo, human. The following applies: with baseline therapy, compared with baseline therapy and placebo; regardless of IFN-γ level at inclusion. As for the experimental part: (§1) During the study therapy phase, patients received Compound 1 or placebo for 12 weeks against the background of baseline steroid therapy with low doses of inhaled corticosteroids. Compound 1 or placebo was administered orally once a day, 30 minutes before breakfast.
(§2) To study the effect of the IFN-γ baseline level in patients with asthma, the results obtained in the clinical study were additionally analyzed; the patients' response to therapy was studied depending on their IFN-γ baseline level in the blood at the time of trial inclusion (determined by the Bio-Plex Pro Human Chemokine Panel Assay (Bio-Rad)).
(§3) Moreover, in the clinical trial, Compound 1 was also analyzed for its effect on IFN-γ signal transduction. […] Thus, the suppression of steroid resistance induced by the use of Compound 1 could potentially be associated with an effect on the aberrant activity (signaling) of IFN-γ.

Test [1] concerns interferon-γ-dependent cytokine CXCL10 (interferon-gamma-induced protein IP10). The test is described as follows: Phase II clinical trial, CXCL10 concentration in blood plasma. The test is classed as in vivo, human. The following applies: with baseline steroid therapy; patients with IFN-γ baseline level >100 pg/ml. As for the experimental part: as §1, §2, §3
For test [2], the system named is acute oxazolone-induced ulcerative colitis. The test is described as follows: Murine model of acute oxazolone-induced ulcerative colitis. Format: in vivo, female balb/c mice. The following applies: for The degree of large intestine wall damage, score: 72 hours after oxazolone, M ± m, n=10. The procedure:
The activity of Compound 1 in a model of acute oxazolone-induced ulcerative colitis was studied using the standard method [Immunity. 2002. P. 629-638]. In the study, female balb/c mice (6-8 weeks old) were used. Compound I was administered intragastrically, three times: 1 hour, 25 hours, and 49 hours after rectal administration of oxazolone. The body weight of the animals was measured before and 24, 48 and 72 hours after administration of oxazolone. The intestinal wall damage was evaluated under a microscope 72 hours after administration of oxazolone, according to the following score scale: 0=no damage, 1=hyperemia, no ulcers, 2=hyperemia, thickening of the intestinal wall, no ulcers, 3=one ulcer without thickening of the intestinal wall, 4=2 or more sites of ulceration or inflammation, 5=2 or more serious sites of ulceration and inflammation, or one site of ulceration/inflammation, extending >1 cm along the length of the colon, and 6-10=damage covers>2 cm long the length of the colon, the score is increased by 1 for each additional 1 cm of involvement. All data were analyzed by descriptive statistics: arithmetic mean (M) and standard error of the arithmetic mean (m). The Shapiro-Wilk test was used to check the normality of the distribution of the obtained experimental data. A normal distribution was analyzed with 1-way ANOVA (with Dunnett's post-analysis) to assess intergroup differences. A non-normal distribution was analyzed with […] (with Tukey's post-analysis) to compare several groups. Differences were determined at a confidence level of 5%.

For test [3], the system named is cough induced by inhalation of citric acid and IFN-γ. The test is described as follows: Guinea pig model of cough induced by inhalation of citric acid and IFN-γ. Format: in vivo, guinea pigs of the Aguti line. As to conditions: for The number of coughing movements within 8 minutes: 7 hours before citric acid inhalation, M ± m, n=5. As for the experimental part:
The activity of Compound I in a model of cough in guinea pigs, which was induced by inhalation of citric acid and IFN-γ, was studied in accordance with the method [Am J Respir Crit Care Med. 2018. V. 198(7). P. 868-879].
In the study, guinea pigs of the Aguti line were used. All experimental animals were inhaled with a citric acid solution (0.3 M) prepared in physiological saline, for 8 minutes. The pathology control group and the groups receiving therapy were inhaled with IFN-γ (10 pg/kg) for 3 minutes at 7 hours before the inhalation of citrate. Compound 1 was administered intragastrically once, immediately after inhalation of IFN-γ, i.e. 7 hours before inhalation of the citric acid solution. The antitussive activity was evaluated by counting the number of coughing fits within 8 minutes from the start of inhalation of citric acid. All data were analyzed by descriptive statistics: arithmetic mean (M) and standard error of the arithmetic mean (m). The Shapiro-Wilk test was used to check the normality of the distribution of the obtained experimental data. A normal distribution was analyzed with 1-way ANOVA (with Dunnett's post-analysis) to assess intergroup differences. A non-normal distribution was analyzed with […] (with Tukey's post-analysis) to compare several groups. Differences were determined at a confidence level of 5%.

In test [4] the test system is patients with bronchial asthma. The test is described as follows: Phase II clinical trial (PULM-XC8-02, NCT03450434), response to baseline inhaled corticosteroid therapy (FEV1). Format: in vivo, human. The procedure:
Thus, Compound is potentially useful for the therapy of diseases associated with the development of steroid resistance, in particular for the treatment of steroid-resistant asthma.
In the clinical trial, eligible patients were randomized 1:1:1:1 to one of four groups: • Compound 1 at a dose of 2 mg per day; • Compound 1 at a dose of 10 mg per day; • Compound 1 at a dose of 100 mg per day; and • Placebo.
as §1
Thus, one of the effects of the use of Compound 1 is the overcoming of the resistance to corticosteroids, which is the backbone of the baseline therapy of patients enrolled in the clinical trial.
as §2
The patients' response to baseline therapy in the groups of baseline steroid therapy and placebo decreased with an increase in the IFN-γ baseline level (FIG. 2). […] This fact indicates the overcoming of steroid resistance that can be caused, inter alia, by aberrant IFN-γ signaling.

As to `O=C1CCCC(=O)N1CCc1cnc[nH]1` [Compound 1, 1-(2-(1H-imidazol-4-yl)ethyl)piperidine-2,6-dione], in the test on IFN-γ, the “Change in concentration of IFN-γ in blood plasma, week 12 vs week 0” value is recorded as “negative dynamics of IFN-γ concentrations”. Moreover, in test [1], the “Change in concentration of CXCL10 (IP10) in blood plasma, week 12 vs week 0” value is reported as “suppressed the concentration of interferon-γ-dependent cytokine CXCL10”. For the same molecule, the “The degree of large intestine wall damage, score” value in test [2] (0.3 mg/kg intragastrically x3) is recorded as 1.70 ± 0.30 score; in test [2] (3 mg/kg intragastrically x3), 1.89 ± 0.31 score; in test [2] (30 mg/kg intragastrically x3) it was 1.40 ± 0.16& score. Further, the Body weight in test [2] (0.3 mg/kg, 24 hours after administration of oxazolone) is on record as 17.9 ± 0.2 g; in test [2] (0.3 mg/kg, 48 hours after administration of oxazolone), 17.5 ± 0.3 g; in test [2] (0.3 mg/kg, 72 hours after administration of oxazolone), 16.9 ± 0.2 g; in test [2] (0.3 mg/kg, before administration of oxazolone), 19.0 ± 0.6 g; in test [2] (3 mg/kg, 24 hours after administration of oxazolone), 17.9 ± 0.3 g; in test [2] (3 mg/kg, 48 hours after administration of oxazolone), 17.6 ± 0.2 g. Also, the Body weight in test [2] (3 mg/kg, 72 hours after administration of oxazolone) was 16.7 ± 0.2 g; in test [2] (3 mg/kg, before administration of oxazolone), 18.7 ± 0.4 g; in test [2] (30 mg/kg, 24 hours after administration of oxazolone), 18.8 ± 0.2& g; in test [2] (30 mg/kg, 48 hours after administration of oxazolone) it was 18.4 ± 0.4& g; in test [2] (30 mg/kg, 72 hours after administration of oxazolone) it was 18.4 ± 0.5& g; in test [2] (30 mg/kg, before administration of oxazolone), 19.8 ± 0.6 g. In addition, the “Effect on degree of damage of the colon wall” value in test [2] (administered intragastrically) is “reduced the degree of damage of the colon wall”. Further, in test [2] (administered intragastrically), the “Effect on weight loss in animals” value is given as “prevented weight loss”. In addition, the “Intensity of action compared with reference steroid” value in test [2] (murine model of ulcerative colitis) is “not inferior to prednisolone by intensity of action”. Moreover, the results for the “The number of coughing movements within 8 minutes” value in test [3] (1.4 mg/kg intragastrically once) and in test [3] (14 mg/kg intragastrically once) were 19.2 ± 2.7& and 18.4 ± 2.9&, respectively. In test [3] (administered intragastrically), the “Effect on number of coughing movements” value is given as “reduced the number of coughing movements”. In addition, the “Response to therapy (change in FEV1, week 12 vs. week 0)” value in test [4] (100 mg per day with baseline steroid therapy vs placebo, especially patients with IFN-γ level more than 100 pg/ml) was “significantly greater and clinically significant response to therapy”. Moreover, the Clinical effect result in test [4] (100 mg per day, 12 weeks, with baseline low-dose inhaled corticosteroids) is listed as “clinically significant effect”. In addition, the “Number of patients with an increase in FEV1 by 100 ml or more (response to baseline steroid therapy)” value in test [4] (baseline steroid therapy and Compound 1, 12 weeks, oral once a day, placebo group 13 out of 29) is listed as 20 patients out of 29.

For `C[C@]12C=CC(=O)C=C1CC[C@@H]1[C@@H]2C(=O)C[C@@]2(C)[C@H]1CC[C@]2(O)C(=O)CO` [Prednisone, reference compound], the Body weight is 18.5 ± 0.4 g in test [2] (10 mg/kg, 24 hours after administration of oxazolone); 17.9 ± 0.4 g in test [2] (10 mg/kg, 48 hours after administration of oxazolone); 17.3 ± 0.6 g in test [2] (10 mg/kg, 72 hours after administration of oxazolone); 19.0 ± 0.4 g in test [2] (10 mg/kg, before administration of oxazolone). Also, in test [2] (10 mg/kg), the “The degree of large intestine wall damage, score” value worked out at 1.80 ± 0.25 score.
